Laboratory results taken from BindingDB's records for doi:10.1016/j.bmcl.2007.09.043 (Amgen, 2007).

Biological target: T1, N-formyl peptide receptor 2 (Homo sapiens, UniProt P25090)
T1 sequence (P25090 whole entry): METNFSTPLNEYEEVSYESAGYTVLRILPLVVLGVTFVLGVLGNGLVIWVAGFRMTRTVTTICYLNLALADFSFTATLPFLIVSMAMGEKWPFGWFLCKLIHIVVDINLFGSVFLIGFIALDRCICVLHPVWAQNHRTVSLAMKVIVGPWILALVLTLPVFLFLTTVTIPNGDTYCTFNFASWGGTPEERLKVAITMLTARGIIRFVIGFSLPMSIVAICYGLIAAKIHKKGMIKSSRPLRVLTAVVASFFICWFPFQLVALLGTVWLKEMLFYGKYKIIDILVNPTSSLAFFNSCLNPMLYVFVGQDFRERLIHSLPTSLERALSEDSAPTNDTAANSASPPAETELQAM
Experiment: hFPRL1-Mediated Ca2+ Mobilization Assay
Details: pH 7.2; 37 °C
Protocol: hFPRL 1 activity was assayed using an aequorin-based bioluminescence assay (Ca2+ flux). EC50 values have been determined by Ca2+ flux in CHO recombinant cells co-expressing hFPRL1, G (alpha15) protein, and aequorin.

- EC50: 6.39 µM
SMILES: COc1ccc2[nH]c(C(=O)N3CCC(n4c(=O)[nH]c5ccccc54)CC3)cc2c1 [1-{1-[(5-methoxy-1H-indol-2-yl)carbonyl]piperidin-4-yl}-1,3-dihydro-2H-benzimidazol-2-one]
